Where two headings read alike, the source gives them in different places.
Legend:
[1] = test system: Amaranthus rudis (AMATA), tall water hemp; experiment: Postemergence herbicide evaluation, growth of Amaranthus rudis (AMATA); type: in vivo; settings: Amaranthus tuberculatus, post-emergence, read-out: Ave. AMATA
[2] = test system: Ambrosia artemisiifolia (AMBEL), common ragweed; experiment: Postemergence herbicide evaluation, growth of Ambrosia artemisiifolia (AMBEL); type: in vivo; settings: Ambrosia artemisiifolia, post-emergence, read-out: AVE. AMBEL
[3] = test system: Abutilon theophrasti (ABUTH), velvetleaf; experiment: Postemergence herbicide evaluation, growth of Abutilon theophrasti (ABUTH); type: in vivo; settings: Abutilon theophrasti, post-emergence, read-out: AVE. ABUTH
[4] = test system: Chenopodium album (CHEAL), common lambsquarters; experiment: Postemergence herbicide evaluation, growth of Chenopodium album (CHEAL); type: in vivo; settings: Chenopodium album, post-emergence, read-out: Ave. CHEAL
[5] = test system: glyphosate resistant Conyza canadensis (L.) (ERICA), horseweed; experiment: Postemergence herbicide evaluation, growth of Conyza canadensis (ERICA); type: in vivo; settings: Erigeron canadensis, post-emergence, read-out: Ave. ERICA
[6] = Volatility of compounds measured by thermogravimetric analysis (TGA); type: physicochemical
[7] = test system: weeds (ABUTH, AMATA, AMBEL, CHEAL, ERICA); experiment: Postemergence herbicide evaluation, overall average % weed control across ABUTH, AMATA, AMBEL, CHEAL, ERICA; type: in vivo; settings: post-emergence, average over the five weeds, read-out: Overall Ave % Weed Control; for pest or weed control at 280 g/ha: 280 g ae/ha; for pest or weed control at 560 g/ha: 560 g ae/ha
[8] = 168 h, 280 g ae/ha, 7 DAA, percent reduction in plant size relative to untreated control
[9] = 168 h, 560 g ae/ha, 7 DAA, percent reduction in plant size relative to untreated control
[10] = 336 h, 280 g ae/ha, 14 DAA, percent reduction in plant size relative to untreated control
[11] = 336 h, 560 g ae/ha, 14 DAA, percent reduction in plant size relative to untreated control
[12] = 504 h, 280 g ae/ha, 21 DAA, percent reduction in plant size relative to untreated control
[13] = 504 h, 560 g ae/ha, 21 DAA, percent reduction in plant size relative to untreated control

## O=C(Cc1ccccc1)NOC(=O)COc1ccc(Cl)cc1Cl [Compound A13, N-(2-(2,4-dichlorophenoxy)acetoxy)-2-phenylacetamide]
[1]; [8]
  pest or weed control at 280 g/ha: 75%
[1]; [9]
  pest or weed control at 560 g/ha: 70%
[1]; [10]
  pest or weed control at 280 g/ha: 80%
[1]; [11]
  pest or weed control at 560 g/ha: 74%
[1]; [12]
  pest or weed control at 280 g/ha: 91%
[1]; [13]
  pest or weed control at 560 g/ha: 70%
[2]; [8]
  pest or weed control at 280 g/ha: 65%
[2]; [9]
  pest or weed control at 560 g/ha: 70%
[2]; [10]
  pest or weed control at 280 g/ha: 85%
[2]; [11]
  pest or weed control at 560 g/ha: 94%
[2]; [12]
  pest or weed control at 280 g/ha: 90%
[2]; [13]
  pest or weed control at 560 g/ha: 97%
[3]; [8]
  pest or weed control at 280 g/ha: 68%
[3]; [9]
  pest or weed control at 560 g/ha: 80%
[3]; [10]
  pest or weed control at 280 g/ha: 70%
[3]; [11]
  pest or weed control at 560 g/ha: 85%
[3]; [12]
  pest or weed control at 280 g/ha: 75%
[3]; [13]
  pest or weed control at 560 g/ha: 93%
[4]; [8]
  pest or weed control at 280 g/ha: 68%
[4]; [9]
  pest or weed control at 560 g/ha: 65%
[4]; [10]
  pest or weed control at 280 g/ha: 68%
[4]; [11]
  pest or weed control at 560 g/ha: 78%
[4]; [12]
  pest or weed control at 280 g/ha: 73%
[4]; [13]
  pest or weed control at 560 g/ha: 91%
[5]; [8]
  pest or weed control at 280 g/ha: 60%
[5]; [9]
  pest or weed control at 560 g/ha: 65%
[5]; [10]
  pest or weed control at 280 g/ha: 78%
[5]; [11]
  pest or weed control at 560 g/ha: 97%
[5]; [12]
  pest or weed control at 280 g/ha: 83%
[5]; [13]
  pest or weed control at 560 g/ha: 99%
[6]
  TGA Data (rate of weight loss, volatility): 1.2 µg/min
[7]; 168 h, 7 DAA
  pest or weed control at 280 g/ha: 67%
  pest or weed control at 560 g/ha: 70%
[7]; 336 h, 14 DAA
  pest or weed control at 280 g/ha: 76%
  pest or weed control at 560 g/ha: 85%
[7]; 504 h, 21 DAA
  pest or weed control at 280 g/ha: 82%
  pest or weed control at 560 g/ha: 90%

## O=C(COc1ccc(Cl)cc1Cl)Oc1ccc(Cl)cc1 [Compound E5, 4-Chlorophenyl 2-(2,4-dichlorophenoxy)acetate]
[1]; 168 h
  pest or weed control at 280 g/ha: 73%
  pest or weed control at 560 g/ha: 78%
[1]; 336 h
  pest or weed control at 280 g/ha: 75%
  pest or weed control at 560 g/ha: 89%
[1]; 504 h
  pest or weed control at 280 g/ha: 78%
  pest or weed control at 560 g/ha: 86%
[2]; 168 h
  pest or weed control at 280 g/ha: 68%
  pest or weed control at 560 g/ha: 75%
[2]; 336 h
  pest or weed control at 280 g/ha: 89%
  pest or weed control at 560 g/ha: 93%
[2]; 504 h
  pest or weed control at 280 g/ha: 90%
  pest or weed control at 560 g/ha: 98%
[3]; 168 h
  pest or weed control at 280 g/ha: 78%
  pest or weed control at 560 g/ha: 85%
[3]; 336 h
  pest or weed control at 280 g/ha: 93%
  pest or weed control at 560 g/ha: 93%
[3]; 504 h
  pest or weed control at 280 g/ha: 98%
  pest or weed control at 560 g/ha: 97%
[4]; 168 h
  pest or weed control at 280 g/ha: 70%
  pest or weed control at 560 g/ha: 68%
[4]; 336 h
  pest or weed control at 280 g/ha: 73%
  pest or weed control at 560 g/ha: 83%
[4]; 504 h
  pest or weed control at 280 g/ha: 80%
  pest or weed control at 560 g/ha: 94%
[5]; 168 h
  pest or weed control at 280 g/ha: 68%
  pest or weed control at 560 g/ha: 70%
[5]; 336 h
  pest or weed control at 280 g/ha: 90%
  pest or weed control at 560 g/ha: 83%
[5]; 504 h
  pest or weed control at 280 g/ha: 95%
  pest or weed control at 560 g/ha: 90%
[6]
  TGA Data (rate of weight loss, volatility): 0.6 µg/min
[7]; 168 h, 7 DAA
  pest or weed control at 280 g/ha: 71%
  pest or weed control at 560 g/ha: 75%
[7]; 336 h, 14 DAA
  pest or weed control at 280 g/ha: 84%
  pest or weed control at 560 g/ha: 88%
[7]; 504 h, 21 DAA
  pest or weed control at 280 g/ha: 88%
  pest or weed control at 560 g/ha: 93%
